# Laboratory results reported in patent US20260000692A1, “Substituted N-(Pyridin-2-yl)Acetamide Derivatives as CDK12/13 Inhibitors” (Aurigene Oncology Limited, priority 2022, published 2026).
# Target: CDK12 (Homo sapiens, UniProt Q9NYV4)
# Assay: Biochemical assay for CDK12 (LANCE TR-FRET, IC50 determination)
# Conditions: for IC50: CDK12, IC50 class, read-out: IC50 μM (in range); for inhibition at 10 µM / CDK12 % Inhibition @ 10 μM: compound at 10 μM; for inhibition at 10 µM: read-out: CDK12 % Inhibition @ 10 μM
# Experimental: Biochemical Assay for CDK12 (IC50 Determination):
# The inhibitory activity of the test compounds was assessed by the LANCE TR-FRET assay, which detects the ATP-dependent phosphorylation of an ULight-4E-BP1 (Thr37/Thr46) substrate peptide (100 nM) by CDK12 (30 nM). Briefly, the enzyme reaction was run in reaction buffer (25 mM HEPES (pH 7.5), 10 mM MgCl2, […], 0.01% Triton x, 1 mM DTT). The assay was performed in 384-well plate format. The end concentration of the ATP substrate was […], and that of the ULight-4E-BP1 (Thr37/Thr46) substrate peptide was 100 nM, and of CDK12 was 30 nM. Pre-incubation of the compound and enzyme was performed for 60 min at room temperature. After 60 min incubation at room temperature, the reaction was terminated by the addition of 40 mM EDTA and 0.5 nM Eu-labeled anti-phospho-eIF4E-binding protein (Thr37/46) antibody in LANCE detection buffer. Time-resolved fluorescence (excitation, 320 nm; emission donor, 615 nm; emission acceptor, 665 nm) was monitored by using 2030 multilabel reader Victor5 (PerkinElmer). The Fluorescence emission of the samples were measured and the ratio was plotted against the compound concentration to generate the dose response curve. The IC50 values were derived by fitting a sigmoidal dose-response curve to a plot of assay readout over inhibitor concentration. All fits were computed with the program Prism 5.03 (Graph Pad Software, San Diego, CA). The % inhibition values at […] were calculated with respect to enzyme activity.
# CDK12, sequence (Q9NYV4 whole entry): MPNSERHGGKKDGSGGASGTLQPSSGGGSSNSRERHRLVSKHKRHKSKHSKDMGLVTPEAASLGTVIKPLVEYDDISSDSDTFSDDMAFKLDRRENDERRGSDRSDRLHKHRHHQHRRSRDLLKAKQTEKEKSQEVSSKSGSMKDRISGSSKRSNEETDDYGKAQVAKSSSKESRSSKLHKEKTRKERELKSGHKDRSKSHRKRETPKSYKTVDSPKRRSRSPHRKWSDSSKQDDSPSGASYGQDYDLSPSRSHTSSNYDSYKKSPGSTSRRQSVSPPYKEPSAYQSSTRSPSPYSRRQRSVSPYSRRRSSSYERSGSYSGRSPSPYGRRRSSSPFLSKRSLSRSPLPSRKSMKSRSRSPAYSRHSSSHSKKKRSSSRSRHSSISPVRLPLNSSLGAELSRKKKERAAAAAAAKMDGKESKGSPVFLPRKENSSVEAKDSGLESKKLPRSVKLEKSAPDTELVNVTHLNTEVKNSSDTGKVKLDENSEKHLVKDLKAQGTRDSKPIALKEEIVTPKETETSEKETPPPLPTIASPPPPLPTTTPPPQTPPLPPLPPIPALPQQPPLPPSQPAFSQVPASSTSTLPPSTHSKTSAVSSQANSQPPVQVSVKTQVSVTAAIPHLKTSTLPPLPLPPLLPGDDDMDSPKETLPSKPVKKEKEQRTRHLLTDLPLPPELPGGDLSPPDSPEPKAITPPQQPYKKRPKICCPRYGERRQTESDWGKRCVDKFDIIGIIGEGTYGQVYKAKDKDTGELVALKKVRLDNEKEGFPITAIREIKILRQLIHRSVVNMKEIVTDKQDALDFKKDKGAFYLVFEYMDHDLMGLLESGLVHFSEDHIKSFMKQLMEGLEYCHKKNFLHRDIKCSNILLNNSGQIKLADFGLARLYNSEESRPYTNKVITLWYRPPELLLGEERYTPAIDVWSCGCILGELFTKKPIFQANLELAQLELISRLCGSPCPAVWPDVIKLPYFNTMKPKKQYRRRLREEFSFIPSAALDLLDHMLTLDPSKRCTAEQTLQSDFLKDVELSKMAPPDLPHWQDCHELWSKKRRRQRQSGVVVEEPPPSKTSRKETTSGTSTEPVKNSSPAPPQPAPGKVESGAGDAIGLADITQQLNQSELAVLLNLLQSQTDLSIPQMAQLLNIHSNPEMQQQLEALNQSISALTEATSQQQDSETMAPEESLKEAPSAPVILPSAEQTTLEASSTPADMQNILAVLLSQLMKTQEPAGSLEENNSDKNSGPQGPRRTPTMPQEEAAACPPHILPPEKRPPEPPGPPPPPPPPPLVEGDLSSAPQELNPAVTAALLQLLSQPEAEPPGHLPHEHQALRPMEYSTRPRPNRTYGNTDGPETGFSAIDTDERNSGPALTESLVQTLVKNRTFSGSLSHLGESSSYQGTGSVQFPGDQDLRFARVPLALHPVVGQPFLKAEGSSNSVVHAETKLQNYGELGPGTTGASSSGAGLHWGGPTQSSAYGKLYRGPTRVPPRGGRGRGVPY
# CDK12, sequence (O75909 whole entry partner): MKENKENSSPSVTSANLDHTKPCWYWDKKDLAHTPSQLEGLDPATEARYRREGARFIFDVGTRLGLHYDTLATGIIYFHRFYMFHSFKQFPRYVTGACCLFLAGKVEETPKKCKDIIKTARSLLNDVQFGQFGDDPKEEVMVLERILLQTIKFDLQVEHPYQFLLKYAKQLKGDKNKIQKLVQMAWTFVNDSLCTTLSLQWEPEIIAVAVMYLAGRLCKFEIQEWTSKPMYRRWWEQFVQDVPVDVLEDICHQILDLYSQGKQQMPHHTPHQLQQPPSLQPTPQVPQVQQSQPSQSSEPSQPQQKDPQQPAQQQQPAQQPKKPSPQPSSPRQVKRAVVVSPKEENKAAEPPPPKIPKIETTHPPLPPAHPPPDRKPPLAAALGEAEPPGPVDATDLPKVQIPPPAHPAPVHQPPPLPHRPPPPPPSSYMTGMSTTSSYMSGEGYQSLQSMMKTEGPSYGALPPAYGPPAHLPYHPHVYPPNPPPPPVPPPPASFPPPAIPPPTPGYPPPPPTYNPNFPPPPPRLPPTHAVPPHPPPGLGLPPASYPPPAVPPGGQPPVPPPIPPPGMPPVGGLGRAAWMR
Structure (SMILES),IC50,inhibition at 10 µM,CDK12 % Inhibition @ 10 μM (10 µM),CDK12 % Inhibition @ 10 μM
"CNC(=O)C(C)Oc1cc(NC(=O)Cc2ccc(-c3cccc(C#N)n3)nc2)ncc1Cl (racemic) [Compound 155, 2-((5-chloro-2-(2-(6′-cyano-[2,2′-bipyridin]-5-yl)acetamido)pyridin-4-yl)oxy)-N-methylpropanamide]",0.01 to 0.1 µM,97%,–,–
"CNC(=O)C(C)Oc1cc(NC(=O)Cc2ccc(C3=CCN(C#N)CC3)nc2)ncc1Cl (single isomer, unassigned) [Compound 2, 2-((5-chloro-2-(2-(1′-cyano-1′,2′,3′,6′-tetrahydro-[2,4′-bipyridin]-5-yl)acetamido)pyridin-4-yl)oxy)-N-methylpropanamide]",< 0.01 µM,90%,–,–
"CNC(=O)C(C)Oc1cc(NC(=O)Cc2ccc(C3=CCN(C#N)CC3)nc2)ncc1Cl (single isomer, unassigned) [Compound 3, 2-((5-chloro-2-(2-(1′-cyano-1′,2′,3′,6′-tetrahydro-[2,4′-bipyridin]-5-yl)acetamido)pyridin-4-yl)oxy)-N-methylpropanamide]",< 0.01 µM,84%,–,–
"N#CN1CCC=C(c2ccc(CC(=O)Nc3cc(OC4CCCOC4)c(Cl)cn3)cn2)C1 (single isomer, unassigned) [Compound 44, N-(5-chloro-4-((tetrahydro-2H-pyran-3-yl)oxy)pyridin-2-yl)-2-(1′-cyano-1′,2′,5′,6′-tetrahydro-[2,3′-bipyridin]-5-yl)acetamide]",< 0.01 µM,89%,–,–
"N#CN1CCC=C(c2ccc(CC(=O)Nc3cc(OC4CCCOC4)c(Cl)cn3)cn2)C1 (single isomer, unassigned) [Compound 45, N-(5-chloro-4-((tetrahydro-2H-pyran-3-yl)oxy)pyridin-2-yl)-2-(1′-cyano-1′,2′,5′,6′-tetrahydro-[2,3′-bipyridin]-5-yl)acetamide]",< 0.01 µM,–,92%,–
"COc1cc(NC(=O)C(C)c2ccc(C3=CCCN(C#N)C3)nc2)ncc1Cl (single isomer, unassigned) [Compound 49]",< 0.01 µM,89%,–,–
"COc1cc(NC(=O)C(C)c2ccc(C3=CCN(C#N)CC3)nc2)ncc1Cl (single isomer, unassigned) [Compound 52]",< 0.01 µM,102%,–,–
"CNC(=O)C(C)Oc1cc(NC(=O)Cc2ccc(C3=CCCN(C#N)C3)nc2)ncc1Cl (single isomer, unassigned) [Compound 58, 2-((5-chloro-2-(2-(1′-cyano-1′,2′,5′,6′-tetrahydro-[2,3′-bipyridin]-5-yl)acetamido)pyridin-4-yl)oxy)-N-methylpropanamide]",< 0.01 µM,–,98%,–
"COc1cc(NC(=O)Cc2ccc(C3=CCN(C#N)C(C)C3)nc2)ncc1Cl (single isomer, unassigned) [Compound 67, N-(5-chloro-4-methoxypyridin-2-yl)-2-(1′-cyano-2′-methyl-1′,2′,3′,6′-tetrahydro-[2,4′-bipyridin]-5-yl)acetamide]",0.01 to 0.1 µM,–,86%,–
"COc1cc(NC(=O)Cc2ccc(C3=CCN(C#N)CC3C)nc2)ncc1Cl (single isomer, unassigned) [Compound 72, N-(5-chloro-4-methoxypyridin-2-yl)-2-(1′-cyano-3′-methyl-1′,2′,3′,6′-tetrahydro-[2,4′-bipyridin]-5-yl)acetamide]",< 0.01 µM,–,92%,–
"COc1cc(NC(=O)Cc2ccc(C3CCCN(C#N)C3)nc2)ncc1Cl (single isomer, unassigned) [Compound 79, N-(5-chloro-4-methoxypyridin-2-yl)-2-(6-(1-cyanopiperidin-3-yl)pyridin-3-yl)acetamide]",> 0.1 µM,79%,–,–
"CNC(=O)C(C)Oc1cc(NC(=O)Cc2ccc(C3CCN(C#N)CC3)nc2)ncc1Cl (single isomer, unassigned) [Compound 83, 2-((5-chloro-2-(2-(6-(1-cyanopiperidin-4-yl)pyridin-3-yl)acetamido)pyridin-4-yl)oxy)-N-methylpropanamide]",0.01 to 0.1 µM,84%,–,–
"CNC(=O)C(C)Oc1cc(NC(=O)Cc2ccc(C3CCN(C#N)CC3)nc2)ncc1Cl (single isomer, unassigned) [Compound 84, 2-((5-chloro-2-(2-(6-(1-cyanopiperidin-4-yl)pyridin-3-yl)acetamido)pyridin-4-yl)oxy)-N-methylpropanamide]",< 0.01 µM,–,–,84%
"CNC(=O)C(C)Oc1cc(NC(=O)Cc2ccc(C3CCCN(C#N)C3)nc2)ncc1Cl (single isomer, unassigned) [Compound 86, 2-((5-chloro-2-(2-(6-(1-cyanopiperidin-3-yl)pyridin-3-yl)acetamido)pyridin-4-yl)oxy)-N-methylpropanamide]",> 0.1 µM,84%,–,–

# Other lines, results leading:
IC50,inhibition at 10 µM,CDK12 % Inhibition @ 10 μM (10 µM),CDK12 % Inhibition @ 10 μM,Structure (SMILES)
< 0.01 µM,78%,–,–,"CNC(=O)C(C)Oc1cc(NC(=O)Cc2ccc(C3=CCCN(C#N)C3)nc2)ncc1Cl (single isomer, unassigned) [Compound 57, 2-((5-chloro-2-(2-(1′-cyano-1′,2′,5′,6′-tetrahydro-[2,3′-bipyridin]-5-yl)acetamido)pyridin-4-yl)oxy)-N-methylpropanamide]"
< 0.01 µM,92%,–,–,"CC1CC(Oc2cc(NC(=O)Cc3ccc(C4=CCCN(C#N)C4)nc3)ncc2Cl)CCN1C (single isomer, unassigned) [Compound 64, N-(5-chloro-4-((1,2-dimethylpiperidin-4-yl)oxy)pyridin-2-yl)-2-(1′-cyano-1′,2′,5′,6′-tetrahydro-[2,3′-bipyridin]-5-yl)acetamide]"
0.01 to 0.1 µM,88%,–,–,"COc1cc(NC(=O)Cc2ccc(C3=CCN(C#N)C(C)C3)nc2)ncc1Cl (single isomer, unassigned) [Compound 66, N-(5-chloro-4-methoxypyridin-2-yl)-2-(1′-cyano-2′-methyl-1′,2′,3′,6′-tetrahydro-[2,4′-bipyridin]-5-yl)acetamide]"
< 0.01 µM,–,87%,–,"COc1cc(NC(=O)Cc2ccc(C3=CCN(C#N)C(C)C3)nc2)ncc1Cl (single isomer, unassigned) [Compound 68, N-(5-chloro-4-methoxypyridin-2-yl)-2-(1′-cyano-2′-methyl-1′,2′,3′,6′-tetrahydro-[2,4′-bipyridin]-5-yl)acetamide]"
< 0.01 µM,93%,–,–,"COc1cc(NC(=O)Cc2ccc(C3=CCN(C#N)CC3C)nc2)ncc1Cl (single isomer, unassigned) [Compound 71, N-(5-chloro-4-methoxypyridin-2-yl)-2-(1′-cyano-3′-methyl-1′,2′,3′,6′-tetrahydro-[2,4′-bipyridin]-5-yl)acetamide]"
0.01 to 0.1 µM,–,87%,–,"COc1cc(NC(=O)Cc2ccc(C3CCCN(C#N)C3)nc2)ncc1Cl (single isomer, unassigned) [Compound 80, N-(5-chloro-4-methoxypyridin-2-yl)-2-(6-(1-cyanopiperidin-3-yl)pyridin-3-yl)acetamide]"
> 0.1 µM,–,85%,–,"CNC(=O)C(C)Oc1cc(NC(=O)Cc2ccc(C3CCCN(C#N)C3)nc2)ncc1Cl (single isomer, unassigned) [Compound 87, 2-((5-chloro-2-(2-(6-(1-cyanopiperidin-3-yl)pyridin-3-yl)acetamido)pyridin-4-yl)oxy)-N-methylpropanamide]"
